According to patent publication US20260234568A1, “TUMOR STORAGE AND CELL CULTURE COMPOSITIONS” (Iovance Biotherapeutics, Inc., priority 2021, published 2026):
Like-named read-outs stand apart in the source and are kept apart here.

How the values were obtained:
Pre-REP TIL [1] = format: cell-based
Experimental: Phase 1: Small Scale Evaluation of Various Antibiotics in shipping medium and CM1 were conducted in 2 separate rounds using 2 different tumors as shown in Tables 53 and 54. The cultures were terminated after the Pre-REP. All the overnight incubations in HTS included 2.5 μg/mL Amphotericin B (or 10 μg/mL for the “high AmpB concentration” condition) and 50 μg/mL gentamicin
All the test and control conditions were tested in quadruplicates. Total Viable Cells and % Viability was recorded on Day 11 of Pre-REP.

S. aureus [2] = experiment: Antibiotics on growth of bacteria in culture media (HTS then CM1); format: cell-based; conditions: S. aureus (strain 1), HTS 24 hours at 2-8° C., then CM1 11 days, Gentamicin 50 μg/mL, Vancomycin 100 μg/mL
Experimental: In these experiments, the following antibiotics were added to Gram+bacteria S. aureus and E. faecalis in hypothermosol (HTS) at three different concentrations of bacteria: • a. Gentamicin (50 μg/mL) • b. […] Vancomycin (100 μg/mL)

E. faecalis [3] = experiment: as above; format: cell-based; conditions: HTS 24 hours at 2-8° C., then CM1 11 days, Gentamicin 50 μg/mL, Vancomycin 100 μg/mL
Experimental: Additional experiments were performed to test the ability of vancomycin to prevent growth of vancomycin sensitive bacteria in culture medium. In these experiments, the following antibiotics were added to Gram+bacteria S. aureus and E. faecalis in hypothermosol (HTS) at three different concentrations of bacteria: • a. Gentamicin (50 μg/mL) • b. Gentamicin (50 μg/mL)+Vancomycin (100 μg/mL) • c. Vancomycin (100 μg/mL)
The mixtures were incubated at 24 hours at 2-8° C. and then 1 mL of each of the samples were added to 20 mL of CM1 medium in the same concentrations of antibiotics above. The mixtures were incubated for 11 days and bacterial growth was visually assessed.

E. faecalis [4] = experiment: Antibiotics on bacterial growth of inoculated tissue fragments (HTS, wash, CM1); format: cell-based; conditions: for bacterial growth, visually assessed: inoculated tissue fragments, washed 3×, 11 days
Experimental: Gentamicin (50 μg/mL) • b. […] Vancomycin (100 μg/mL)

S. aureus [5] = conditions: for bacterial growth, visually assessed: S. aureus (strain 1), inoculated tissue fragments, washed 3×, 11 days
Experimental: Additional experiments were performed to test the ability of vancomycin to prevent growth of vancomycin sensitive bacteria in culture medium. In these experiments, tissue fragments were inoculated in HTS with three different loads of S. aureus and E. faecalis bacteria and the following antibiotics: • a.
The 6 HTS inoculates (iHTS) shown were incubated at 24 hours at 2-8° C. and washed 3× with tumor wash buffer with the same concentrations of antibiotics above. The tumor samples were incubated for 11 days and bacterial growth was visually assessed.

Pre-REP TIL [6] = experiment: Phase II full scale Pre-REP: extended phenotype of Day 11 samples; conditions: 100 μg/mL in tumor shipping medium and CM1 Pre-REP media
Experimental: The received tumor was separated into 2 equal portions and stored overnight similarly to the overnight incubation in phase I of testing. The chosen antibiotic condition was tested against Gentamicin Sulfate control at full scale Pre-REP according to the Day 0 Gen 2 Batch Record. TVC, viability, identity, function, and extended phenotyping data were obtained.
Both antibiotics were tested in shipping medium and CM1 at a concentration of 100 μg/mL.

In the case of `C[C@@H]1[C@H](O)[C@@H](C)/C=C/C=C/C=C/C=C/C=C/C=C/C=C/[C@H](O[C@@H]2O[C@H](C)[C@@H](O)[C@H](N)[C@@H]2O)C[C@@H]2O[C@](O)(C[C@@H](O)C[C@@H](O)[C@H](O)CC[C@@H](O)C[C@@H](O)CC(=O)O[C@H]1C)C[C@H](O)[C@H]2C(=O)O` [amphotericin B], the “cytotoxicity / impact on Pre-REP TIL cell growth (in words)” value (Pre-REP TIL [1]; Day 11 of Pre-REP, quadruplicates, with 50 μg/mL gentamicin) was “did not appear cytotoxic”.

With `CN[C@H](CC(C)C)C(=O)N[C@H]1C(=O)N[C@@H](CC(N)=O)C(=O)N[C@H]2C(=O)N[C@H]3C(=O)N[C@H](C(=O)N[C@H](C(=O)O)c4cc(O)cc(O)c4-c4cc3ccc4O)[C@H](O)c3ccc(c(Cl)c3)Oc3cc2cc(c3O[C@@H]2O[C@H](CO)[C@@H](O)[C@H](O)[C@H]2O[C@H]2C[C@](C)(N)[C@H](O)[C@H](C)O2)Oc2ccc(cc2Cl)[C@H]1O` [vancomycin] the “cytotoxicity / impact on Pre-REP TIL cell growth (in words)” value (Pre-REP TIL [1]) was “least cytotoxicity”, the “bacterial growth, visually assessed” value (S. aureus [2]) was “inhibited grown” and the “bacterial growth, visually assessed” value (S. aureus [2]; listed as Vanco) was “No Growth”. For the same compound, the “bacterial growth, visually assessed” value (E. faecalis [3]) was “inhibited grown”, the “bacterial growth, visually assessed” value (E. faecalis [3]; listed as Vanco) was “No Growth” and the “bacterial growth, visually assessed” value (E. faecalis [4]; Bacterial Load High) was “No Growth”. For the same compound, the “bacterial growth, visually assessed” value (E. faecalis [4]; Bacterial Load Low) was “No Growth”, the “bacterial growth, visually assessed” value (E. faecalis [4]; Bacterial Load Med) was “No Growth” and the “bacterial growth (summary in words)” value (E. faecalis [4]; all the bacterial loads tested) was “no observed growth”. The “bacterial growth, visually assessed” value (S. aureus [5]; Bacterial Load High) was “No Growth”, the “bacterial growth, visually assessed” value (S. aureus [5]; Bacterial Load Low) was “No Growth” and the “bacterial growth, visually assessed” value (S. aureus [5]; Bacterial Load Med) was “No Growth”. For the same compound, the “bacterial growth (summary in words)” value (S. aureus [5]; S. aureus, all the bacterial loads tested) was “no observed growth” and the “effect on the Pre-REP cell product (TVC, Viability, Identity, Function, Extended Phenotyping; in words)” value (Pre-REP TIL [6]) was “no deleterious effect”.
